What was measured:
Assay type in all cases: cell-based
EGFR WT (Ba/F3 cells) = target: T1, EGFR WT (Ba/F3 cells) (Homo sapiens, UniProt P00533); experiment: Inhibitor activity on EGFR-dependent cell growth (CellTiter-Glo, 72 h), Ba/F3 EGFR WT; conditions: read-out: BaF3 WT IC50
T1 construct: expressed in transfected cells; host or cells: Ba/F3 (murine pro-B cells), retroviral transduction, puromycin selection, maintained with EGF
Summary of the method: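 This growth assay used Ba/F3 cells that depend on wild-type EGFR and are kept in EGF without IL3. Compounds were made up as 10 mM DMSO stocks and diluted 3-fold over 10 points. 120 nL went onto 600 cells/well. After 72 hours, 40 μL CellTiter-Glo was added and luminescence read on EnVision after 30 min.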

[1] = target: T2, EGFR exon 20 NPG Ins D770_N771 (Ba/F3 cells) (Homo sapiens, UniProt P00533, INS770NPG); experiment: Inhibitor activity on EGFR-dependent cell growth (CellTiter-Glo, 72 h), Ba/F3 EGFR exon 20 NPG Ins; conditions: read-out: BaF3 NPG IC50
T2 construct: expressed in transfected cells; host or cells: Ba/F3 (murine pro-B cells), retroviral transduction, puromycin selection, IL3-independent pool
T2 sequence (P00533 with tags, fused parts or gaps INS770NPG): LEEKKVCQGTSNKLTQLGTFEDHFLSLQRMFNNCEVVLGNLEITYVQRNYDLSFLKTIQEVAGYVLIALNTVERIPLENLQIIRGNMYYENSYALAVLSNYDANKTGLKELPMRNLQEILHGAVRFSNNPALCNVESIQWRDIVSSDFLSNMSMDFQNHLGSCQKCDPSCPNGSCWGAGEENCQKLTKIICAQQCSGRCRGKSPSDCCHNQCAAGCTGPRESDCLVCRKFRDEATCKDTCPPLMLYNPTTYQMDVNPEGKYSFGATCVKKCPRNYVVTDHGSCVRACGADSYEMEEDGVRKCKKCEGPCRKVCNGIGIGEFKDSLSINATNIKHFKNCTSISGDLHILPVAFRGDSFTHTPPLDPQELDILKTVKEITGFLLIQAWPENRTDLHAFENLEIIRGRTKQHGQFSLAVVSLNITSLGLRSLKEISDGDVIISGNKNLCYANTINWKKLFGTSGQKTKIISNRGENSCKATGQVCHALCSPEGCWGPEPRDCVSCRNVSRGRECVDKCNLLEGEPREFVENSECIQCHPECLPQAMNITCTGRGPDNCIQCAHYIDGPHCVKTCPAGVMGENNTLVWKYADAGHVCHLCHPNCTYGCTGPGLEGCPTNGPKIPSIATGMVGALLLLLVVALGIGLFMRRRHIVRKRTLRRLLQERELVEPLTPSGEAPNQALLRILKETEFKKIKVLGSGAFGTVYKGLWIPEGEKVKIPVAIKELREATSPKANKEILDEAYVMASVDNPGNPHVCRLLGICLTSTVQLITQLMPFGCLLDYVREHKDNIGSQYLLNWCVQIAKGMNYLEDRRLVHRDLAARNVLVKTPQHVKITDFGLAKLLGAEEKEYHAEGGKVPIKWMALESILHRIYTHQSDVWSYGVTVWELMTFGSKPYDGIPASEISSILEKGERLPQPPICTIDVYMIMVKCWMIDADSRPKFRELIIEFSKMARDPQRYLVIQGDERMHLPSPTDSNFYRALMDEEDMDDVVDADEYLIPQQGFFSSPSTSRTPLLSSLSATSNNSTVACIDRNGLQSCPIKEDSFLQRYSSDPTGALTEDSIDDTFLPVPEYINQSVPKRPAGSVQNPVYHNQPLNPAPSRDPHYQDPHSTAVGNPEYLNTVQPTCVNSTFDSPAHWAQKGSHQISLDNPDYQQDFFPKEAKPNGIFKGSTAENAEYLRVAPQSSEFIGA
Summary of the method: (§1)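 IC50s derive from a sigmoidal dose–response fit of CellTiter-Glo signal. The signal was normalised between […]-treated cells and cell-free medium. Ba/F3 mutant-EGFR cells, seeded at 400–800/well depending on the line, had 72 h of exposure to a 10-point, 3-fold compound series.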

[2] = target: T3, EGFR exon 20 ASV Ins V769_D770 (Ba/F3 cells) (Homo sapiens, UniProt P00533, INS769ASV); experiment: Inhibitor activity on EGFR-dependent cell growth (CellTiter-Glo, 72 h), Ba/F3 EGFR exon 20 ASV Ins; conditions: read-out: BaF3 ASV IC50
T3 construct: expressed in transfected cells; host or cells: Ba/F3 (murine pro-B cells), retroviral transduction, puromycin selection, IL3-independent pool
T3 sequence (P00533 with tags, fused parts or gaps INS769ASV): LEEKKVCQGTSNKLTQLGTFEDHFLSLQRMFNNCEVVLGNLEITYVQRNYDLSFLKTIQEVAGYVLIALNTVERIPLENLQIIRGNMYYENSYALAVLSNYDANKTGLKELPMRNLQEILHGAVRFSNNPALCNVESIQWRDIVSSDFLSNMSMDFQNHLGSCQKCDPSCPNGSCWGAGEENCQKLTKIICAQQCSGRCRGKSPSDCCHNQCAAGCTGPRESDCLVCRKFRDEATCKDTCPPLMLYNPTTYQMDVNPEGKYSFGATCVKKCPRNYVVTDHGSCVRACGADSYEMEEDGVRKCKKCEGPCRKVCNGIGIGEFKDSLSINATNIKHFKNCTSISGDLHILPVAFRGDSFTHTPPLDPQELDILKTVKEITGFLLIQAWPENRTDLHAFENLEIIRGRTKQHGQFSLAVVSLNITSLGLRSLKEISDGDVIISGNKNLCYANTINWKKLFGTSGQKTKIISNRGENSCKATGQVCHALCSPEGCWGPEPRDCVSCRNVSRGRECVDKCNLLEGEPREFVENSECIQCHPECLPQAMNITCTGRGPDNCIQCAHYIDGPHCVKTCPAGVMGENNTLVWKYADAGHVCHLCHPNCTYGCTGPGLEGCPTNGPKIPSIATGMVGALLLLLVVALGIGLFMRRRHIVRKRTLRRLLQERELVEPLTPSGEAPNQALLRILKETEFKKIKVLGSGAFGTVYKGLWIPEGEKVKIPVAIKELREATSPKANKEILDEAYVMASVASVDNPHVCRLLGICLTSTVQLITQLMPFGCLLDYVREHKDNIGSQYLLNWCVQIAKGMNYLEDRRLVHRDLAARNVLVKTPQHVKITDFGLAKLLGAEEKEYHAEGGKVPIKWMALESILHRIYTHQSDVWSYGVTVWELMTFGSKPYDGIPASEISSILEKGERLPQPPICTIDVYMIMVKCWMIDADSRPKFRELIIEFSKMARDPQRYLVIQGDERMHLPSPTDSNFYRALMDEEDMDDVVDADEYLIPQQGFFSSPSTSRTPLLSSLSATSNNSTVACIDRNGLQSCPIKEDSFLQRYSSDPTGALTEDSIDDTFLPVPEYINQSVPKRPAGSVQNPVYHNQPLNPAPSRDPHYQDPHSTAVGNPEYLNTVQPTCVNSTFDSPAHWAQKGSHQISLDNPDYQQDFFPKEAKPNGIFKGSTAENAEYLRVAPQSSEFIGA
Summary of the method: as §1

[3] = target: T4, EGFR exon 20 SVD Ins D770_N771 (Ba/F3 cells) (Homo sapiens, UniProt P00533, INS770SVD); experiment: Inhibitor activity on EGFR-dependent cell growth (CellTiter-Glo, 72 h), Ba/F3 EGFR exon 20 SVD Ins; conditions: read-out: BaF3 SVD IC50
T4 construct: expressed in transfected cells; host or cells: Ba/F3 (murine pro-B cells), retroviral transduction, puromycin selection, IL3-independent pool
T4 sequence (P00533 with tags, fused parts or gaps INS770SVD): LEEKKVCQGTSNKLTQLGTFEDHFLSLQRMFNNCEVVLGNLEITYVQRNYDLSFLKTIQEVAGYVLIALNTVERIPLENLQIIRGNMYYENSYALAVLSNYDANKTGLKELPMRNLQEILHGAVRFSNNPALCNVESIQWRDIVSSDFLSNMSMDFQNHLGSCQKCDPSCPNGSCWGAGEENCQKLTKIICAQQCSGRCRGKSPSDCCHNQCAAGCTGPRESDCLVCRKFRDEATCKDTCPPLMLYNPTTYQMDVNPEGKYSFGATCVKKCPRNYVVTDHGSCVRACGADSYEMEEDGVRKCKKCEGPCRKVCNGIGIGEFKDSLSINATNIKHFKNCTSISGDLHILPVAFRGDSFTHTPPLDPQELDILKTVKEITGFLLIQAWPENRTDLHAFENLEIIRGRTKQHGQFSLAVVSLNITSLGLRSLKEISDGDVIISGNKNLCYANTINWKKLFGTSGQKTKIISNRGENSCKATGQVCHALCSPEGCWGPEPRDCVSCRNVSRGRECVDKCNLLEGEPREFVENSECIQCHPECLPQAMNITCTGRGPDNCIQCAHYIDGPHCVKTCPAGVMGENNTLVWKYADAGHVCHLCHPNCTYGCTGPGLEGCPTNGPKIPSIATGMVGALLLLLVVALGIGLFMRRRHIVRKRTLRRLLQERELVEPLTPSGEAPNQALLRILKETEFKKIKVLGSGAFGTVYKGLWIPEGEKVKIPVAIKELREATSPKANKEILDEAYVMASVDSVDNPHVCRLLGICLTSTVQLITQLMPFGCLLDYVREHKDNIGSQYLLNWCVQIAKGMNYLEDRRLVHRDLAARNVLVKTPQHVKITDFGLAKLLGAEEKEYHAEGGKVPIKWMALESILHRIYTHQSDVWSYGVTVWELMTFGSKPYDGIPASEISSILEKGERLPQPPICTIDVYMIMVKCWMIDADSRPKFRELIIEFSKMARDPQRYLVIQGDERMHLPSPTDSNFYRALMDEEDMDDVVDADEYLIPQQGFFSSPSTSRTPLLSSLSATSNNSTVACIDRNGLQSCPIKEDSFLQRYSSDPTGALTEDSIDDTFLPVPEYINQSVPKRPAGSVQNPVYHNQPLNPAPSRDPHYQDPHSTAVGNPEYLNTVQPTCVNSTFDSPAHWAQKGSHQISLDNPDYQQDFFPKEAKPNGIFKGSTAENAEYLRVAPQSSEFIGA
Summary of the method: as §1

[4] = target: T5, EGFR exon 20 FQEA Ins A763_V764 (Ba/F3 cells) (Homo sapiens, UniProt P00533, INS763FQEA); experiment: Inhibitor activity on EGFR-dependent cell growth (CellTiter-Glo, 72 h), Ba/F3 EGFR exon 20 FQEA Ins; conditions: read-out: BaF3 FQEA IC50
T5 construct: expressed in transfected cells; host or cells: Ba/F3 (murine pro-B cells), retroviral transduction, puromycin selection, IL3-independent pool
Summary of the method: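 Compounds, serially diluted 3-fold over 10 points in DMSO and added at 120 nL per well, act on Ba/F3 EGFR-mutant cells for 72 h. Seeding is 800 (exon 19del, FQEA), 600 (L858R/C797S) or 400 (L858R) cells/well. CTG luminescence is fitted with a four-parameter logistic curve to give IC50.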

[5] = target: T3, EGFR exon 20 ASV Ins V769_D770 (Ba/F3 cells); experiment: Inhibitor activity on EGFR phosphorylation (pEGFR AlphaLISA, 2 h), Ba/F3 EGFR exon 20 ASV Ins
Excerpt: Example B. Inhibitor Activity on EGFR phosphorylation (pEGFR)
EGFR mutant Ba/F3 cells were generated by transduction with retrovirus containing vectors expressing EGFR L858R, EGFR exon 19del, EGFR L858R/C797S, EGFR exon 20 NPG Ins D770_N771, EGFR exon 20 ASV Ins V769_D770, or EGFR exon 20 SVD Ins D770_N771 genes along with a puromycin selection marker. Transduced cells are selected with puromycin for 7 days and are then be transferred into culture media without Interleukin 3 (IL3). Surviving cells are confirmed to express EGFR by Western blot and maintained as a pool. CUTO14 cells were obtained from Dr. Robert C. Doebele at the University of Colorado. The IC50 date are included in Table 6 and Table 7.
1.1 Cells are harvested from flask into cell culture medium and the cell number counted.
1.2 Cells are diluted with culture medium to the desired density and 40 μL of cell suspension is added into each well of 384-well cell culture plate and the seeding density is 50K cells/well (Ba/F3) or 12.5K cells/well (CUTO14).
2 Compound Preparation and Treatment
2.1 Test compounds are dissolved to 10 mM in a DMSO stock solution. 45 μL of stock solution is transferred to a 384 polypropylene plate (pp-plate). Perform 3-fold, 10-point dilution via transferring 15 μL compound into 30 μL DMSO using a TECAN (EVO200) liquid handler.
2.2 Spin plates at room temperature at 1,000 RPM for 1 minute.
2.3 Transfer 5 nL of diluted compound from compound source plate into the cell plate.
2.4 After compound treatment for 2 hours, perform pEGFR detection by AlphaLISA for compound treatment plates as described in “Detection” section.
3 Detection by pEGFR AlphaLISA (Perkin-Elmer)
3.1 Plates are removed from incubators and equilibrated at room temperature for 10 minutes, and media was removed
3.2 10 μL of lysis buffer is added and plates shaken at 600 rpm for 1 hr.
3.3 Prepare acceptor mix just before use and dispense 5 μL of acceptor mix to all the wells. Shake 350 rpm for Ihr in the dark
3.4 Prepare donor mix under low light conditions prior to use. Dispense 5 μL of donor mix to all the wells. Mix well on the shaker, seal and wrap in aluminum foil and incubate 1.5 hrs at room temperature in the dark
3.5 Transfer 18.5 μL mixture to OptiPlate 384, and read using an Envision. The IC50 date were included in Table 6 and Table 7.

[6] = EGFR phosphorylation, AlphaLISA, 2 hours, read-out: ASV IC50 (pEGFR)

T1 sequence (P00533 25-1210): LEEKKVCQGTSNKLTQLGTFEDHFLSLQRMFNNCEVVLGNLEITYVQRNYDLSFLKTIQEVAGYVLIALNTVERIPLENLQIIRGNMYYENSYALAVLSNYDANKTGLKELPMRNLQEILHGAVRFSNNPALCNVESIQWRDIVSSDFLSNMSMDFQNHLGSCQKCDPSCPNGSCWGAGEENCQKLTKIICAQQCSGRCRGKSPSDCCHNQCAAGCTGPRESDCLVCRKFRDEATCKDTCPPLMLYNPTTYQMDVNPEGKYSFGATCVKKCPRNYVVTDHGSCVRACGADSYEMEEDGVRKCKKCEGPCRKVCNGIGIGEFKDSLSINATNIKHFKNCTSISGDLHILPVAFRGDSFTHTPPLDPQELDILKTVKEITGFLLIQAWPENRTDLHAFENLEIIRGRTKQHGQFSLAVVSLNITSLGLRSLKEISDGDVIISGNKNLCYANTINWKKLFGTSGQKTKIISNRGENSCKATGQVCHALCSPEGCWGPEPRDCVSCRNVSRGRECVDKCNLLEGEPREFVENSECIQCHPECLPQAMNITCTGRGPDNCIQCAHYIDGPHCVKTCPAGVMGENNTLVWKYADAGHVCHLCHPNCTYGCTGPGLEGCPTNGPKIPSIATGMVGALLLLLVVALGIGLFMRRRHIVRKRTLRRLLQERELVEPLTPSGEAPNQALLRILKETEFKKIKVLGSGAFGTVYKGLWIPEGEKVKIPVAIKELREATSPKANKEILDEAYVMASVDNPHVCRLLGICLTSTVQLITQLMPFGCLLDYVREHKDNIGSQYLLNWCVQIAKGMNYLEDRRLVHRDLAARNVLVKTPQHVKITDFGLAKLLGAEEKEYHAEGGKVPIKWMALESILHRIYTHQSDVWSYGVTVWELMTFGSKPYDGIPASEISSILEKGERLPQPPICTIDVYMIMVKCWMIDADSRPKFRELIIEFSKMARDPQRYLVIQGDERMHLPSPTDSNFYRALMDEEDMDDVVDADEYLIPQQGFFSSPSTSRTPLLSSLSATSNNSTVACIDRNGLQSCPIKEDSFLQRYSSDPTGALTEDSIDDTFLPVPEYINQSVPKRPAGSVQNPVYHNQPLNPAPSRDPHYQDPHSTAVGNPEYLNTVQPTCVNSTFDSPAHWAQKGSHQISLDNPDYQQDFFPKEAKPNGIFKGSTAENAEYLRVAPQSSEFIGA

| SMILES | IC50 (EGFR WT (Ba/F3 cells)) [µM] | IC50 [1] [µM] | IC50 [2] [µM] | IC50 [3] [µM] | IC50 [4] [µM] | IC50 [5, 6] [µM] | IC50 [5] [µM] |
| --- | --- | --- | --- | --- | --- | --- | --- |
| COc1c(F)cccc1Nc1c(-c2snc3cccnc23)[nH]c2c1C(=O)NCC2 [Compound 156, 3-((3-fluoro-2-methoxyphenyl)amino)-2-(isothiazolo[4,3-b]pyridin-3-yl)-1,5,6,7-tetrahydro-4H-pyrrolo[3,2-c]pyridin-4-one] | > 1 | > 1 | > 1 | > 1 | > 1 | > 1 |  |
| COc1c(F)cccc1Nc1c(-c2nc(N)ncc2F)[nH]c2c1C(=O)NCC2 [Compound 688, 2-(2-amino-5-fluoropyrimidin-4-yl)-3-[(3-fluoro-2-methoxyphenyl)amino]-1H,5H,6H,7H-pyrrolo[3,2-c]pyridin-4-one] | > 1 | > 1 | > 1 | > 1 | > 1 | > 1 |  |
| COc1c(F)cccc1Nc1c(-c2ccnc3ccc(NC(C)(C)C)nc23)[nH]c2c1C(=O)NCC2 [Compound 694, 2-[6-(tert-butylamino)-1,5-naphthyridin-4-yl]-3-[(3-fluoro-2-methoxyphenyl)amino]-1H,5H,6H,7H-pyrrolo[3,2-c]pyridin-4-one] | < 0.1 | < 0.1 | < 0.1 | < 0.1 | < 0.1 | < 0.1 |  |
| COc1c(F)cccc1Nc1c(-c2ccnc3ccc(OC4CC4)nc23)[nH]c2c1C(=O)NCC2 [Compound 696, 2-(6-cyclopropoxy-1,5-naphthyridin-4-yl)-3-[(3-fluoro-2-methoxyphenyl)amino]-1H,5H,6H,7H-pyrrolo[3,2-c]pyridin-4-one; trifluoroacetic acid] | < 0.1 | < 0.1 | < 0.1 | < 0.1 | < 0.1 | < 0.1 |  |
| COc1c(F)cccc1Nc1c(-c2ccnc3ccc(N(C)C)nc23)[nH]c2c1C(=O)NCC2 [Compound 697, 2-[6-(dimethylamino)-1,5-naphthyridin-4-yl]-3-[(3-fluoro-2-methoxyphenyl)amino]-1H,5H,6H,7H-pyrrolo[3,2-c]pyridin-4-one] | < 0.1 | < 0.1 | < 0.1 | < 0.1 | < 0.1 | < 0.1 |  |
| COc1c(Nc2c(-c3ccnc(N)n3)[nH]c3c2C(=O)NCC3)cccc1C(F)(F)F [Compound 698, 2-(2-aminopyrimidin-4-yl)-3-[[2-methoxy-3-(trifluoromethyl)phenyl]amino]-1H,5H,6H,7H-pyrrolo[3,2-c]pyridin-4-one] | > 1 | 0.1 to 1 |  |  | 0.1 to 1 | 0.1 to 1 |  |
| COc1c(Cl)cccc1Nc1c(-c2ccnc(NCC(F)(F)F)n2)[nH]c2c1C(=O)NCC2 [Compound 701, 3-[(3-chloro-2-methoxyphenyl)amino]-2-[2-[(2,2,2-trifluoroethyl)amino]pyrimidin-4-yl]-1H,5H,6H,7H-pyrrolo[3,2-c]pyridin-4-one] | > 1 | > 1 | > 1 | > 1 | > 1 | 0.1 to 1 |  |
| COc1c(Cl)cccc1Nc1c(-c2ccnc(NCC(F)F)n2)[nH]c2c1C(=O)NCC2 [Compound 702, 3-[(3-chloro-2-methoxyphenyl)amino]-2-[2-[(2,2-difluoroethyl)amino]pyrimidin-4-yl]-1H,5H,6H,7H-pyrrolo[3,2-c]pyridin-4-one] | > 1 | 0.1 to 1 | 0.1 to 1 | 0.1 to 1 | 0.1 to 1 | 0.1 to 1 |  |
| Nc1nccc(-c2[nH]c3c(c2Nc2cccc(Cl)c2F)C(=O)NCC3)n1 [Compound 706, 2-(2-aminopyrimidin-4-yl)-3-[(3-chloro-2-fluorophenyl)amino]-1H,5H,6H,7H-pyrrolo[3,2-c]pyridin-4-one] | 0.1 to 1 | < 0.1 |  |  | 0.1 to 1 |  | < 0.1 |
| COc1c(Cl)cccc1Nc1c(-c2ccnc(NCCN(C)C)n2)[nH]c2c1C(=O)NCC2 [Compound 707, 3-((3-chloro-2-methoxyphenyl)amino)-2-(2-((2-(dimethylamino)ethyl)amino)pyrimidin-4-yl)-1,5,6,7-tetrahydro-4H-pyrrolo[3,2-c]pyridin-4-one] | > 1 | > 1 | > 1 | > 1 | > 1 | > 1 |  |
| COc1c(Cl)cccc1Nc1c(-c2ccnc(NC(=O)c3cccc(F)c3)n2)[nH]c2c1C(=O)NCC2 [compound 102] | > 1 | 0.1 to 1 | 0.1 to 1 | 0.1 to 1 | 0.1 to 1 | < 0.1 |  |
| COc1c(Cl)cccc1Nc1c(-c2ccnc(NC3CC3)n2)[nH]c2c1C(=O)NCC2 [compound 112] | > 1 | > 1 | 0.1 to 1 | 0.1 to 1 | 0.1 to 1 | < 0.1 |  |
| Nc1nccc(-c2[nH]c3c(c2Nc2cccc(C(F)(F)F)c2)C(=O)NCC3)n1 [compound 199] | > 1 | 0.1 to 1 | > 1 | > 1 | 0.1 to 1 | 0.1 to 1 |  |
| CCc1c(Cl)cccc1Nc1c(-c2ccnc(N)n2)[nH]c2c1C(=O)NCC2 [compound 297] | > 1 | 0.1 to 1 |  |  | 0.1 to 1 | < 0.1 |  |
| COc1c(Cl)cccc1Nc1c(-c2ccnc(NCC3CC(F)(F)C3)c2)[nH]c2c1C(=O)NCC2 [compound 711] | > 1 |  | > 1 | > 1 | > 1 | 0.1 to 1 |  |
| Nc1nccc(-c2[nH]c3c(c2Nc2cccc4scnc24)C(=O)NCC3)n1 [compound 718, 2-(2-aminopyrimidin-4-yl)-3-(1,3-benzothiazol-4-ylamino)-1H,5H,6H,7H-pyrrolo[3,2-c]pyridin-4-one; trifluoroacetic acid] | > 1 |  | > 1 | > 1 | > 1 | 0.1 to 1 |  |
| Cc1c(Cl)cccc1Nc1c(-c2ccnc(N)n2)[nH]c2c1C(=O)NCC2 [compound 725, 2-(2-aminopyrimidin-4-yl)-3-[(3-chloro-2-methylphenyl)amino]-1H,5H,6H,7H-pyrrolo[3,2-c]pyridin-4-one; trifluoroacetic acid] | 0.1 to 1 | < 0.1 |  |  | 0.1 to 1 | < 0.1 |  |
| COc1c(Nc2c(-c3ccnc(N)n3)[nH]c3c2C(=O)NCC3)cccc1C(C)=O [compound 728, 3-[(3-acetyl-2-methoxyphenyl)amino]-2-(2-aminopyrimidin-4-yl)-1H,5H,6H,7H-pyrrolo[3,2-c]pyridin-4-one] | > 1 |  | > 1 | > 1 | > 1 | > 1 |  |
